# In ChEMBL document CHEMBL1201861, “Genomics of Drug Sensitity in Cancer screening data, Wellcome Trust Sanger Institute”:
# Experiments:
# Test in all cases: cells
# Settings in all cases: Homo sapiens
# NCI-H2228 = type: functional, cell-based;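 further: growth inhibition of human NCI-H2228 cells, read out by a cell viability assay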
# Description: SANGER: Inhibition of human NCI-H2228 cell growth in a cell viability assay.
# MeWo = type: functional, cell-based;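 further: growth inhibition of MeWo cells, determined by a cell viability readout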
# Description: SANGER: Inhibition of human Mewo cell growth in a cell viability assay.
# IGR-1 = type: functional, cell-based;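 further: growth inhibition of human IGR-1 cells, read out with a cell viability assay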
# Description: SANGER: Inhibition of human IGR-1 cell growth in a cell viability assay.
# HT55 = type: functional, cell-based;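 further: cell viability readout measuring growth inhibition of human HT55 cells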
# Description: SANGER: Inhibition of human HT55 cell growth in a cell viability assay.
# DU-145 = type: functional, cell-based
# Description: SANGER: Inhibition of human DU-145 cell growth in a cell viability assay.
# MFE-280 = type: functional, cell-based;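 further: growth inhibition of MFE-280 cells, determined with a cell viability readout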
# Description: SANGER: Inhibition of human MFE-280 cell growth in a cell viability assay.
# MKN-1 = type: functional, cell-based;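 further: growth inhibition of human MKN1 cells, read out by a cell viability measurement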
# Description: SANGER: Inhibition of human MKN1 cell growth in a cell viability assay.
# MCF7 = type: functional, cell-based;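 further: growth inhibition of human MCF7 cells, read out with a cell viability assay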
# Description: SANGER: Inhibition of human MCF7 cell growth in a cell viability assay.
# HT-1080 = type: functional, cell-based
# Description: SANGER: Inhibition of human HT-1080 cell growth in a cell viability assay.
# ACHN = type: functional, cell-based;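 further: cell viability read-out used to gauge how strongly growth of human ACHN cells is suppressed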
# Description: SANGER: Inhibition of human ACHN cell growth in a cell viability assay.
# HuP-T3 = type: functional, cell-based;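 further: HuP-T3 cell growth inhibition, read out with a cell viability assay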
# Description: SANGER: Inhibition of human HuP-T3 cell growth in a cell viability assay.
# SW1990 = type: functional, cell-based;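 further: cell growth inhibition determined with a viability assay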
# Description: SANGER: Inhibition of human SW1990 cell growth in a cell viability assay.
# SW1417 = type: functional, cell-based;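 further: growth inhibition of human SW1417 cells, read out with a cell viability assay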
# Description: SANGER: Inhibition of human SW1417 cell growth in a cell viability assay.
# NCI-H661 = type: functional, cell-based;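 further: cell viability assay read-out, IC50 being the concentration that inhibits growth of the cells by half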
# Description: SANGER: Inhibition of human NCI-H661 cell growth in a cell viability assay.
# HOP-92 = type: functional, cell-based;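 further: cell viability readout, with IC50 reflecting inhibition of HOP-92 cell growth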
# Description: SANGER: Inhibition of human HOP-92 cell growth in a cell viability assay.
# GCT = type: functional, cell-based;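 further: GCT cell line proliferation inhibition, read out with a cell viability assay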
# Description: SANGER: Inhibition of human GCT cell growth in a cell viability assay.
# HCC1937 = type: functional, cell-based;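 further: growth inhibition measured with a cell viability read-out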
# Description: SANGER: Inhibition of human HCC1937 cell growth in a cell viability assay.
# D-247MG = type: functional, cell-based
# Description: SANGER: Inhibition of human D-247MG cell growth in a cell viability assay.
# OAW-28 = type: functional, cell-based;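 further: growth inhibition of OAW-28 cells, read out with a cell viability assay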
# Description: SANGER: Inhibition of human OAW-28 cell growth in a cell viability assay.
# UACC-62 = type: functional, cell-based;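 further: growth inhibition of human UACC-62 cells, read out by a cell viability assay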
# Description: SANGER: Inhibition of human UACC-62 cell growth in a cell viability assay.
# NCI-H28 = type: functional, cell-based;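 further: growth inhibition of human NCI-H28 cells, read out as cell viability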
# Description: SANGER: Inhibition of human NCI-H28 cell growth in a cell viability assay.
# CP50-MEL-B = type: functional, cell-based;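 further: growth inhibition of the human cell line, measured with a cell viability read-out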
# Description: SANGER: Inhibition of human CP50-MEL-B cell growth in a cell viability assay.
# GP5d = type: functional, cell-based;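 further: growth inhibition of human GP5d cells, read out with a cell viability assay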
# Description: SANGER: Inhibition of human GP5d cell growth in a cell viability assay.
# T-24 = type: functional, cell-based;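 further: growth inhibition of T-24 cells, read out with a cell viability assay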
# Description: SANGER: Inhibition of human T-24 cell growth in a cell viability assay.
# BPH-1 = type: functional, cell-based;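 further: cell viability assay measuring growth inhibition of human BPH-1 cells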
# Description: SANGER: Inhibition of human BPH-1 cell growth in a cell viability assay.
# NCI-H2405 = type: functional, cell-based;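 further: growth inhibition of the human cell line, read out with a cell viability assay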
# Description: SANGER: Inhibition of human NCI-H2405 cell growth in a cell viability assay.
# DoTc2-4510 = type: functional, cell-based
# COLO-678 = type: functional, cell-based
# Description: SANGER: Inhibition of human COLO-678 cell growth in a cell viability assay.
# 647-V = type: functional, cell-based;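 further: growth inhibition of 647-V cells, read out with a cell viability assay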
# Description: SANGER: Inhibition of human 647-V cell growth in a cell viability assay.
# KYSE-510 = type: functional, cell-based;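 further: cell viability readout used to measure how strongly growth of the cell line is suppressed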
# Description: SANGER: Inhibition of human KYSE-510 cell growth in a cell viability assay.
# BHY = type: functional, cell-based;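 further: cell growth inhibition read out by a viability assay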
# Description: SANGER: Inhibition of human BHY cell growth in a cell viability assay.
# SF-295 = type: functional, cell-based;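 further: growth inhibition of SF-295 cells, read out with a cell viability assay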
# Description: SANGER: Inhibition of human SF295 cell growth in a cell viability assay.
# RVH-421 = type: functional, cell-based
# Description: SANGER: Inhibition of human RVH-421 cell growth in a cell viability assay.
# COLO-741 = type: functional, cell-based
# Description: SANGER: Inhibition of human COLO-741 cell growth in a cell viability assay.
# HCT-116 = type: functional, cell-based
# Description: SANGER: Inhibition of human HCT-116 cell growth in a cell viability assay.
# NCI-H1755 = type: functional, cell-based;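 further: cell viability readout used to measure growth inhibition of NCI-H1755 cells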
# Description: SANGER: Inhibition of human NCI-H1755 cell growth in a cell viability assay.
# SK-MEL-28 = type: functional, cell-based;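 further: growth inhibition of human SK-MEL-28 cells, read out with a cell viability assay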
# Description: SANGER: Inhibition of human SK-MEL-28 cell growth in a cell viability assay.
# A204 = type: functional, cell-based;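 further: growth inhibition of human A204 cells, read out with a cell viability assay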
# Description: SANGER: Inhibition of human A204 cell growth in a cell viability assay.
# SK-LU-1 = type: functional, cell-based;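 further: cell viability assay measuring growth inhibition of human SK-LU-1 cells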
# Description: SANGER: Inhibition of human SK-LU-1 cell growth in a cell viability assay.
# HCC38 = type: functional, cell-based;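 further: cell viability assay on the human HCC38 cell line, with IC50 marking the concentration that inhibits cell growth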
# Description: SANGER: Inhibition of human HCC38 cell growth in a cell viability assay.
# SW1573 = type: functional, cell-based;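 further: growth inhibition of SW1573 cells, read out with a cell viability assay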
# Description: SANGER: Inhibition of human SW1573 cell growth in a cell viability assay.
# UACC-893 = type: functional, cell-based
# Description: SANGER: Inhibition of human UACC-893 cell growth in a cell viability assay.
# NCI-H1573 = type: functional, cell-based;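 further: growth inhibition of NCI-H1573 cells, read out with a cell viability assay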
# Description: SANGER: Inhibition of human NCI-H1573 cell growth in a cell viability assay.
# VM-CUB-1 = type: functional, cell-based;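 further: cell viability assay measuring growth inhibition of the human VM-CUB-1 cell line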
# Description: SANGER: Inhibition of human VM-CUB-1 cell growth in a cell viability assay.
# NCI-H596 = type: functional, cell-based;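 further: growth inhibition of NCI-H596 cells, read out with a cell viability assay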
# Description: SANGER: Inhibition of human NCI-H596 cell growth in a cell viability assay.
# NCI-H460 = type: functional, cell-based;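 further: cell viability assay scoring growth inhibition of human NCI-H460 cells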
# Description: SANGER: Inhibition of human NCI-H460 cell growth in a cell viability assay.
# NCI-H650 = type: functional, cell-based;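 further: growth inhibition of NCI-H650 cells, read out by a viability assay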
# Description: SANGER: Inhibition of human NCI-H650 cell growth in a cell viability assay.
# HOS = type: functional, cell-based;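 further: growth inhibition of human HOS cells, read out with a cell viability assay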
# Description: SANGER: Inhibition of human HOS cell growth in a cell viability assay.
# MKN-7 = type: functional, cell-based;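 further: growth inhibition of MKN-7 cells, read out with a cell viability assay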
# Description: SANGER: Inhibition of human MKN7 cell growth in a cell viability assay.
# ESS-1 = type: functional, cell-based;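 further: growth inhibition of human ESS-1 cells, read out by a cell viability assay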
# Description: SANGER: Inhibition of human ESS-1 cell growth in a cell viability assay.
# 8305C = type: functional, cell-based
# Description: SANGER: Inhibition of human 8305C cell growth in a cell viability assay.
# NCI-H1437 = type: functional, cell-based;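 further: growth inhibition of human NCI-H1437 cells, read out by a cell viability assay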
# Description: SANGER: Inhibition of human NCI-H1437 cell growth in a cell viability assay.
# SAOS-2 = type: functional, cell-based;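 further: growth inhibition of human Saos-2 cells determined by a cell viability assay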
# Description: SANGER: Inhibition of human Saos-2 cell growth in a cell viability assay.
# HuCCT-1 = type: functional, cell-based, HuCCT1;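 further: growth inhibition of HuCCT-1 cells, read out by a cell viability assay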
# Description: SANGER: Inhibition of human HuCCT1 cell growth in a cell viability assay.
smiles,measurement,setting,value
Cn1cc(/C=C2\C(=O)Nc3cccnc32)c2ccccc21,IC50,NCI-H2228,> 2000 nM
same,IC50,MeWo,> 2000 nM
same,IC50,IGR-1,> 2000 nM
same,IC50,HT55,> 2000 nM
same,IC50,DU-145,> 2000 nM
same,IC50,MFE-280,> 2000 nM
same,IC50,MKN-1,> 2000 nM
same,IC50,MCF7,> 2000 nM
same,IC50,HT-1080,> 2000 nM
same,IC50,ACHN,> 2000 nM
same,IC50,HuP-T3,> 2000 nM
same,IC50,SW1990,> 2000 nM
same,IC50,SW1417,> 2000 nM
same,IC50,NCI-H661,> 2000 nM
same,IC50,HOP-92,> 2000 nM
same,IC50,GCT,> 2000 nM
same,IC50,HCC1937,> 2000 nM
same,IC50,D-247MG,> 2000 nM
same,IC50,OAW-28,> 2000 nM
same,IC50,UACC-62,> 2000 nM
same,IC50,NCI-H28,> 2000 nM
same,IC50,CP50-MEL-B,> 2000 nM
same,IC50,GP5d,> 2000 nM
same,IC50,T-24,638 nM
same,IC50,BPH-1,> 2000 nM
same,IC50,NCI-H2405,> 2000 nM
same,IC50,DoTc2-4510,> 2000 nM
same,IC50,COLO-678,> 2000 nM
same,IC50,647-V,> 2000 nM
same,IC50,KYSE-510,> 2000 nM
same,IC50,BHY,> 2000 nM
same,IC50,SF-295,> 2000 nM
same,IC50,RVH-421,> 2000 nM
same,IC50,COLO-741,> 2000 nM
same,IC50,HCT-116,> 2000 nM
same,IC50,NCI-H1755,> 2000 nM
same,IC50,SK-MEL-28,> 2000 nM
same,IC50,A204,> 2000 nM
same,IC50,SK-LU-1,> 2000 nM
same,IC50,HCC38,> 2000 nM
same,IC50,SW1573,> 2000 nM
same,IC50,UACC-893,> 2000 nM
same,IC50,NCI-H1573,> 2000 nM
same,IC50,VM-CUB-1,> 2000 nM
same,IC50,NCI-H596,> 2000 nM
same,IC50,NCI-H460,> 2000 nM
same,IC50,NCI-H650,> 2000 nM
same,IC50,HOS,> 2000 nM
same,IC50,MKN-7,> 2000 nM
same,IC50,ESS-1,> 2000 nM
same,IC50,8305C,> 2000 nM
same,IC50,NCI-H1437,> 2000 nM
same,IC50,SAOS-2,> 2000 nM
same,IC50,HuCCT-1,> 2000 nM
O=c1cc(N2CCOCC2)oc2c(-c3cccc4c3sc3ccccc34)cccc12,IC50,NCI-H2228,> 2000 nM
same,IC50,MeWo,> 2000 nM
same,IC50,IGR-1,> 2000 nM
same,IC50,HT55,> 2000 nM
same,IC50,DU-145,> 2000 nM
same,IC50,MFE-280,> 2000 nM
same,IC50,MKN-1,> 2000 nM
same,IC50,MCF7,> 2000 nM
same,IC50,HT-1080,> 2000 nM
same,IC50,ACHN,> 2000 nM
same,IC50,HuP-T3,> 2000 nM
same,IC50,SW1990,> 2000 nM
same,IC50,SW1417,> 2000 nM
same,IC50,NCI-H661,> 2000 nM
same,IC50,HOP-92,> 2000 nM
same,IC50,GCT,> 2000 nM
same,IC50,HCC1937,> 2000 nM
same,IC50,D-247MG,> 2000 nM
same,IC50,OAW-28,> 2000 nM
same,IC50,UACC-62,> 2000 nM
same,IC50,NCI-H28,> 2000 nM
same,IC50,CP50-MEL-B,> 2000 nM
same,IC50,GP5d,> 2000 nM
same,IC50,T-24,> 2000 nM
same,IC50,BPH-1,> 2000 nM
same,IC50,NCI-H2405,> 2000 nM
same,IC50,DoTc2-4510,> 2000 nM
same,IC50,COLO-678,> 2000 nM
same,IC50,647-V,> 2000 nM
same,IC50,KYSE-510,> 2000 nM
same,IC50,BHY,> 2000 nM
same,IC50,SF-295,> 2000 nM
same,IC50,RVH-421,> 2000 nM
same,IC50,COLO-741,> 2000 nM
same,IC50,HCT-116,> 2000 nM
same,IC50,NCI-H1755,> 2000 nM
same,IC50,SK-MEL-28,> 2000 nM
same,IC50,A204,> 2000 nM
same,IC50,SK-LU-1,> 2000 nM
same,IC50,HCC38,> 2000 nM
same,IC50,SW1573,> 2000 nM
same,IC50,UACC-893,> 2000 nM
same,IC50,NCI-H1573,> 2000 nM
same,IC50,VM-CUB-1,> 2000 nM
same,IC50,NCI-H596,> 2000 nM
same,IC50,NCI-H460,> 2000 nM
same,IC50,NCI-H650,> 2000 nM
same,IC50,HOS,> 2000 nM
same,IC50,MKN-7,> 2000 nM
same,IC50,ESS-1,> 2000 nM
same,IC50,8305C,> 2000 nM
same,IC50,NCI-H1437,> 2000 nM
same,IC50,SAOS-2,> 2000 nM
same,IC50,HuCCT-1,> 2000 nM
